Source: patent US12697330B2, “Therapeutic methods using vadadustat” (Akebia Therapeutics, Inc., priority 2021, dated 2026)

Tested on: hemoglobin (Hb)
Experiment: Phase 2 study in hemodialysis subjects converting from epoetin alfa, Main Study: efficacy (hemoglobin)
Format: in vivo, human
Conditions: for Change in Hb from Primary Evaluation Period to Secondary Evaluation Period, Mean (SD) / Change in Hb from Primary Evaluation Period to Secondary Evaluation Period, Median / Hb at Primary Evaluation Period (Average of Weeks 10 to 12), Mean (SD) / Hb at Primary Evaluation Period (Average of Weeks 10 to 12), Median / Hb at Secondary Evaluation Period (Average of Weeks 18 to 20), Mean (SD) / Hb at Secondary Evaluation Period (Average of Weeks 18 to 20), Median: completed 12 weeks of treatment
Source text: The primary objective was to assess the efficacy and safety of daily dosing of vadadustat compared to epoetin alfa for 12 weeks in hemodialysis subjects. Additional objectives included to assess the efficacy and safety of three times weekly (TIW) dosing of vadadustat in selected hemodialysis subjects who have been successfully managed with daily dosing of vadadustat through Week 12, to evaluate the PK/PD of daily and TIW dosing of vadadustat in hemodialysis subjects compared to epoetin alfa, and to assess the efficacy and safety of several dosing strategies of vadadustat compared to epoetin alfa during a 20-week Treatment Period in hemodialysis subjects.
The Main study population consisted of adult subjects receiving chronic, outpatient in-center hemodialysis three times weekly (TIW), with 2 screening hemoglobin (Hb) values between 8.5 and 11.0 g/dL (inclusive) and on maintenance treatment with epoetin alfa <300 U/kg/week.
Efficacy Endpoints. The primary endpoint was the mean change in Hb between Baseline (average pretreatment Hb) and the primary evaluation period (average Hb from Weeks 10 to 12). Secondary endpoints included proportion of subjects with Hb values within the target range (10.0 to 11.0 g/dL, inclusive) at the primary evaluation period (Weeks 10-12) and for subjects who transitioned to TIW vadadustat dosing, mean change in Hb from primary evaluation period (average Hb from Weeks 10-12) to the secondary period (average Hb from Weeks 18-20). Other secondary endpoints included mean change in Hb from Baseline (average pretreatment Hb) and the secondary evaluation period (average Hb from Weeks 18-20), proportion of subjects with Hb values within the target range (10.0 to 11.0 g/dL, inclusive) at the secondary evaluation period (Weeks 18 to 20), for subjects who transitioned to TIW vadadustat dosing, proportion of subjects with Hb values within the target range (10.0 to 11.0 g/dL, inclusive) at the secondary evaluation period (Weeks 18-20), proportion of subjects with a mean increase in Hb from Baseline to the primary evaluation period ≥0.5 g/dL (average Hb from Weeks 10-12) or with Hb values within the target range (10.0 to 11.0 g/dL, inclusive) at the primary evaluation period (Weeks 10-12), proportion of subject with a mean increase in Hb from Baseline to the secondary evaluation period ≥0.5 g/dL (average Hb from Weeks 18-20) or with Hb values within the target range (10.0 to 11.0 g/dL, inclusive) at the secondary evaluation period (Weeks 18-20), intravenous (IV) iron supplementation, ESA rescue, and RBC transfusion.
Study Design. This was a Phase 2, randomized, open-label study to evaluate vadadustat for the treatment of anemia in hemodialysis subjects converting from epoetin alfa therapy. For all subjects (Main study and ESA hyporesponder parallel study), the study included a Screening Period, a study Treatment Period, and a Safety Follow-Up Period as described below. PK and PD sampling were done throughout the study. The aim was to achieve and maintain Hb levels within the target range of 10.0 to 11.0 g/dL, inclusive, while targeting the middle of the range and minimizing excursions outside the target range.
Randomization. Subjects were randomized to either a vadadustat treatment arm or epoetin alfa treatment arm. Randomization was stratified by mean weekly epoetin alfa dose calculated over a period of 8 weeks prior to SV2: low epoetin alfa dose group (≤90 U/kg/week) or high epoetin alfa dose group (>90 to <300 U/kg/week). In the low epoetin alfa dose group, subjects were randomized in a 3:3:2 ratio to receive either an initial vadadustat daily dose of 450 mg (3 tablets) or 300 mg (2 tablets), or epoetin alfa. In the high epoetin alfa dose group, subjects were randomized in a 3:3:3:2 ratio to receive either an initial vadadustat daily dose of 600 mg (4 tablets), 450 mg (3 tablets) or 300 mg (2 tablets), or epoetin alfa.
Study Treatment Period (Baseline/Day 1 to Week 20). […]

[1] = Vadadustat, subjects did not switch
[2] = Vadadustat, subjects switched from QD to TIW
[3] = whole treatment group, Main Study

O=C(O)CNC(=O)c1ncc(-c2cccc(Cl)c2)cc1O [vadadustat, {[5-(3-chlorophenyl)-3-hydroxypyridine-2-carbonyl]amino}acetic acid]
Mean change from baseline in Hb over time, versus comparator (Randomized population, FIG. 13 and FIG. 14): lower than the epoetin alfa treatment group throughout
Change in Hb from Primary Evaluation Period to Secondary Evaluation Period, Mean (SD) (Vadadustat Total, Overall): −0.064 (1.2236) g/dL
Change in Hb from Primary Evaluation Period to Secondary Evaluation Period, Median (Vadadustat Total, Overall): -0.033 g/dL
Hb at Primary Evaluation Period (Average of Weeks 10 to 12), Mean (SD) (Vadadustat Total, Overall): 9.809 (1.1548) g/dL
Hb at Primary Evaluation Period (Average of Weeks 10 to 12), Median (Vadadustat Total, Overall): 9.900 g/dL
Hb at Secondary Evaluation Period (Average of Weeks 18 to 20), Mean (SD) (Vadadustat Total, Overall): 9.876 (0.8867) g/dL
Hb at Secondary Evaluation Period (Average of Weeks 18 to 20), Median (Vadadustat Total, Overall): 9.800 g/dL
Change in Hb from Primary Evaluation Period to Secondary Evaluation Period, Mean (SD) [1]: 0.039 g/dL
Change in Hb from Primary Evaluation Period to Secondary Evaluation Period, Median [1]: 0.067 g/dL
Hb at Primary Evaluation Period (Average of Weeks 10 to 12), Mean (SD) [1]: 9.694 (1.2248) g/dL
Hb at Primary Evaluation Period (Average of Weeks 10 to 12), Median [1]: 9.483 g/dL
Hb at Secondary Evaluation Period (Average of Weeks 18 to 20), Mean (SD) [1]: 9.854 (0.8378) g/dL
Hb at Secondary Evaluation Period (Average of Weeks 18 to 20), Median [1]: 9.800 g/dL
Change in Hb from Primary Evaluation Period to Secondary Evaluation Period, Mean (SD) (Vadadustat, subjects did not switch, listed as Vadadustat): 0.039 (1.2286) g/dL
Change in Hb from Primary Evaluation Period to Secondary Evaluation Period, Mean (SD) [2]: -0.422 g/dL
Change in Hb from Primary Evaluation Period to Secondary Evaluation Period, Median [2]: -0.350 g/dL
Hb at Primary Evaluation Period (Average of Weeks 10 to 12), Mean (SD) [2]: 10.376 (0.3754) g/dL
Hb at Primary Evaluation Period (Average of Weeks 10 to 12), Median [2]: 10.433 g/dL
Hb at Secondary Evaluation Period (Average of Weeks 18 to 20), Mean (SD) [2]: 9.955 (1.0716) g/dL
Hb at Secondary Evaluation Period (Average of Weeks 18 to 20), Median [2]: 9.900 g/dL
Change in Hb from Primary Evaluation Period to Secondary Evaluation Period, Mean (SD) (Vadadustat, subjects switched from QD to TIW, listed as Vadadustat): −0.422 (1.1708) g/dL
proportion of subjects having Hb values within target range at Weeks 10 to 12 (vadadustat 300 mg group of the high epoetin alfa stratum): 8.3%
course of Hb versus baseline (vadadustat 300 mg, high epoetin alfa stratum): decrease from baseline in Hb up to Week 10, after which Hb began to return towards baseline
mean (SD) Hb at the PEP (Weeks 10 to 12) [3]: 9.78 (1.048) g/dL
mean (SD) changes from baseline in Hb at the PEP [3]: −0.35 (0.976) g/dL
proportion of subjects having Hb values within target range at the PEP (Weeks 10 to 12) [3]: 32.7%
